The target in test [1] is T1, Fatty-acid amide hydrolase 1 [30-579] (Rattus norvegicus, UniProt P97612).
T1 construct: 30-579
T1 sequence (P97612 whole entry): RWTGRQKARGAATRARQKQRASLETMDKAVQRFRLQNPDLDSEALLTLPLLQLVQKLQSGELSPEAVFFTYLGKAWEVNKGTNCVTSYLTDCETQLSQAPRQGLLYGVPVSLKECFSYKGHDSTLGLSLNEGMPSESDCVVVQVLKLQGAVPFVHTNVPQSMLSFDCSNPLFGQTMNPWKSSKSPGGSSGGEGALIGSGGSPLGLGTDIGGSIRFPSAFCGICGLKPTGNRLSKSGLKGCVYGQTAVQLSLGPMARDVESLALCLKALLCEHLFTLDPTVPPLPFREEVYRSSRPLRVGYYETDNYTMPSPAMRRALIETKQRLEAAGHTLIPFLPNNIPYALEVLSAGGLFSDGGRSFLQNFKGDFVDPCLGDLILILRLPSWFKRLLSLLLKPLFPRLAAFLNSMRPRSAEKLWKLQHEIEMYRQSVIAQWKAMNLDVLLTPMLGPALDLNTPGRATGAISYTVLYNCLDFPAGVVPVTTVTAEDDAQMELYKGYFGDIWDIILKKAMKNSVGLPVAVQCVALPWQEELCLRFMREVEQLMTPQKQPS

Another test addresses Cannabinoid receptor 2 (Homo sapiens, UniProt P34972).
Another test has as its target Cannabinoid receptor 1 (Homo sapiens, UniProt P21554).

Sequence of Cannabinoid receptor 1 (P21554 whole entry): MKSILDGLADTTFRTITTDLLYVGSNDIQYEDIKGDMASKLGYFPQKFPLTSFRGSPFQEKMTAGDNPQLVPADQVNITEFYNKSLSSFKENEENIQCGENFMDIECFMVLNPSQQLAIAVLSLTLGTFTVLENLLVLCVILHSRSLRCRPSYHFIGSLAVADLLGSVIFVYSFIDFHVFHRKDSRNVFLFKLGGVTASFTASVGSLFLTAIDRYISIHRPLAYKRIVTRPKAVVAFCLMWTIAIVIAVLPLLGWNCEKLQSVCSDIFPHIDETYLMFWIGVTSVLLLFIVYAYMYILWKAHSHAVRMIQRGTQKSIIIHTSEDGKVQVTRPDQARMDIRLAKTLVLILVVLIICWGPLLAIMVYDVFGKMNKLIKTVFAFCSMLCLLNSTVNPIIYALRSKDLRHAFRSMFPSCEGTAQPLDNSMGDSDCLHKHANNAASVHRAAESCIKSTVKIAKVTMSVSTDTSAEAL
Sequence of Cannabinoid receptor 2 (P34972 whole entry): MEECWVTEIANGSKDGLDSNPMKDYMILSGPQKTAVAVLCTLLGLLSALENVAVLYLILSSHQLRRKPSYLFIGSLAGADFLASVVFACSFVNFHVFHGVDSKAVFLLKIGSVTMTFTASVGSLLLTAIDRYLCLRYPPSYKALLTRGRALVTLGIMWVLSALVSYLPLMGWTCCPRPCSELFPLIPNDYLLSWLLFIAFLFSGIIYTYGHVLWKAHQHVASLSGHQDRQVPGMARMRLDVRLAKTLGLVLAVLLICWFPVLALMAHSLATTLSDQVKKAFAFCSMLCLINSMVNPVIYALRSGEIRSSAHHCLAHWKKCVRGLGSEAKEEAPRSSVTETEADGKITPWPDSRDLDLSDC

Take `CCCCCCC(CCCCCCCCCCC(=O)NCc1ccc(O)c(OC)c1)OC(=O)Cc1ccccc1` (stereo not given) [PhAR, Di-hydro]: the Ki was over 10 µM in test [1], 1.1 µM at Cannabinoid receptor 2 and 5 µM at Cannabinoid receptor 1.
On to `CCCCCCCCC=CCCCCCCCC(=O)NCc1ccc(O)c(OC)c1` [CAS_58493-49-5], for which the inhibitory constant (Ki) (in test [1]; on Cannabinoid receptor 2; on Cannabinoid receptor 1) was over 10 µM each time.
As for `COc1cc(CNC(=O)CCCCC=CC(C)C)ccc1O` [CAS_404-86-4], the Ki (in test [1]; at Cannabinoid receptor 2) was over 10 µM each time.
As for `CCCCCC[C@H](CC=CCCCCCCCC(=O)NCc1ccc(O)c(OC)c1)OC(=O)c1ccccc1` [Rinvanil, Benzoil], the Ki in test [1] was over 10 µM; on Cannabinoid receptor 2 it was 1.4 µM; on Cannabinoid receptor 1, 1.3 µM.
For `CCCCCC[C@H](CC=CCCCCCCCC(=O)NCc1ccc(O)c(OC)c1)OC(=O)Cc1ccccc1` [PhAR], in that order: over 10 µM, 0.3 µM and 2.2 µM.
In the case of `CCCCCC[C@H](CC=CCCCCCCCC(=O)NCc1cc(I)c(O)c(OC)c1)OC(=O)Cc1ccccc1` [PhAR, 5-I], the results for the Ki (in test [1]; on Cannabinoid receptor 2; on Cannabinoid receptor 1) were over 10 µM, 1.5 µM and 5 µM, respectively.
Consider `CCCCCCC(C/C=C/CCCCCCCC(=O)NCc1ccc(O)c(OC)c1)OC(=O)Cc1ccccc1` (stereo not drawn) [PhAR, ent], for which the results for the Ki (in test [1]; at Cannabinoid receptor 2; at Cannabinoid receptor 1) were over 10 µM, 0.4 µM and 2.4 µM, respectively.
Consider `CCCCCC[C@H](CC=CCCCCCCCC(=O)NCc1cc(OC)c(O)cc1I)OC(=O)Cc1ccccc1` [PhAR, 6-I], for which the results for the Ki (in test [1]; on Cannabinoid receptor 2; on Cannabinoid receptor 1) were over 10 µM, 2.2 µM and 2.5 µM, respectively.
Consider `CCCCCC[C@@H](O)CC=CCCCCCCCC(=O)NCc1ccc(O)c(OC)c1` [Rinvanil], for which the inhibition constant (Ki) (in test [1]; at Cannabinoid receptor 2; at Cannabinoid receptor 1) was over 10 µM each time.
`CCCCCC[C@H](CC=CCCCCCCCC(=O)NCc1ccc(O)c(OC)c1)OC(C)=O` [Rinvanil, Acetyl]: the Ki (in test [1]; on Cannabinoid receptor 2; at Cannabinoid receptor 1) was over 10 µM each time.
In test [1], `CCCCCC[C@H](CC=CCCCCCCCC(=O)NCc1ccc(O)c(OC)c1)OC(=O)CCc1ccccc1` [Rinvanil, Phenyl-propionyl] yielded a Ki of over 10 µM.

The term Ki denotes a dissociation constant, usually derived from enzyme kinetics or from competition with a known ligand. A higher Ki goes with a looser hold on the target.

The values are drawn from BindingDB's records for doi:10.1124/jpet.104.074864 (University of Piemonte Orientale, 2005).
